Measurements as given in patent EP0463514B1, “3.3'-Dithiobis (propionic acids) and esters thereof” (priority 1990, dated 1992).
Marks after values point to notes of the source that are not given here.

System: delayed type hypersensitivity (DTH) reaction
Assay: Delayed type hypersensitivity (DTH) reaction in the mouse, OXA sensitization and ear challenge, ear thickness
Type: in vivo, Balb/c mice
Conditions: oral feeding from sensitization to Day 6, 100 = doubled ear thickness; for % Increase, 48h: increase in ear thickness 48 hours after OXA challenge
Source text: The property of the compounds of the invention to stimulate immune responses are illustrated by their efficacy in a model in the mouse of the delayed type hypersensitivity (DTH) reaction.
Both male and female Balb/c mice obtained from Bomhotsgaard (Denmark) and Charlie Rivers (England), were used at the weight of 18-20 gram. 4-ethoxymethylene-2-phenyloxazolone (OXA) was purchased from BDH (England) and served as an antigen in this test.
The mice were sensitized, Day 0, by epicutaneous application of 150 ul absolute ethanol-acetone (3:1) solution containing 3% OXA on the shaved thorax and abdomen. Treatment with the compound under examination, DiNAC (as a positive control) or vehicle (phosphate buffer, pH 7.0) was initiated by oral feeding immediately after sensitization and contiuned once to Day 6. […] (Day 6) after the sensitization both ears of all mice were challenged on both sides by topical application of 20 ul 1% OXA dissolved in olive oil. Ear thickness was measured prior to and 24 or 48 hours after challenge using an Oditest spring calliper. Challenges and measurements were performed under light pentobarbital anaesthesia. The intensity of the DTH reactions was expressed according to the formula: Tt24/48-Tt0 um units, where t0 and t24/48 represent the ear thickness before and 24 or 48 hours after challenge, respectively, in individual test (T). The results were expressed as the mean+/-S.E.M. The level of significance between means of the groups was obtained by Student's two-tailed t-test. […] A figure of 100 thus indicates a doubled ear thickness.

SMILES: CCCCCC(=O)N[C@@H](CSSC[C@H](NC(=O)CCCCC)C(=O)OC)C(=O)OC [Example 9, (R,R)-N,N'-dihexanoyl-3,3'-dithiobis(2-aminopropionic acid)dimethylester]
- % Increase, 48h (0.03 »mol/kg): 51*** %
- % Increase, 48h: 45*** %

SMILES: COC(=O)[C@H](CSSC[C@H](NC(=O)C(C)C)C(=O)OC)NC(=O)C(C)C [Example 14, (R,R)-N,N'-di(2-methylpropionyl)-3,3'-dithiobis(2-aminopropionic acid)dimethylester]
- % Increase, 48h (0.03 »mol/kg): 17* %
- % Increase, 48h: 27*** %

SMILES: CCCCCCCC(=O)N[C@@H](CSSC[C@H](NC(=O)CCCCCCC)C(=O)OC)C(=O)OC [Example 10, (R,R)-N,N'-di(1-oxo-octyl)-3,3'-dithiobis-(2-aminopropionic acid)dimethylester]
- % Increase, 48h (0.03 »mol/kg): 28** %
- % Increase, 48h: 20* %

SMILES: CC(C)C(=O)N[C@@H](CSSC[C@H](NC(=O)C(C)C)C(=O)O)C(=O)O [Example 16, (R,R)-N,N'-di(2-methylpropionyl)-3,3'-dithiobis(2-aminopropionic acid)]
- % Increase, 48h (0.03 »mol/kg): 27** %
- % Increase, 48h: 62*** %

SMILES: CC(C)(C)C(=O)N[C@@H](CSSC[C@H](NC(=O)C(C)(C)C)C(=O)O)C(=O)O [Example 21, (R,R)-N,N'-di(2,2-dimethylpropionyl)-3,3'-dithiobis(2-aminopropionic acid)]
- % Increase, 24h (increase in ear thickness 24 hours after OXA challenge, 0.03 »mol/kg): 14* %
- % Increase, 48h (0.03 »mol/kg): 26* %
- % Increase, 48h: 27* %

SMILES: CC(=O)N[C@@H](CSSC[C@H](NC(=O)C(C)(C)C)C(=O)O)C(=O)O [Example 20, (R,R)-N-Acetyl-N'-(2,2-dimethylpropionyl)-3,3'-dithiobis(2-aminopropionic acid)]
- % Increase, 48h (0.03 »mol/kg): 14%
- % Increase, 48h: 17* %

SMILES: CCCCCCCC(=O)N[C@@H](CSSC[C@H](NC(=O)CCCCCCC)C(=O)OCC)C(=O)OCC [Example 11, (R,R)-N,N'-di(1-oxo-octyl)-3,3'-dithiobis(2-aminopropionic acid)diethylester]
- % Increase, 48h (0.03 »mol/kg): 0%
- % Increase, 48h: 0%
